The assay deals with T1, hCRTH2 receptor (Homo sapiens, UniProt Q9Y5Y4).
T1 construct: expressed in transfected cells; host or cells: HEK293
T1 sequence (Q9Y5Y4 1-395): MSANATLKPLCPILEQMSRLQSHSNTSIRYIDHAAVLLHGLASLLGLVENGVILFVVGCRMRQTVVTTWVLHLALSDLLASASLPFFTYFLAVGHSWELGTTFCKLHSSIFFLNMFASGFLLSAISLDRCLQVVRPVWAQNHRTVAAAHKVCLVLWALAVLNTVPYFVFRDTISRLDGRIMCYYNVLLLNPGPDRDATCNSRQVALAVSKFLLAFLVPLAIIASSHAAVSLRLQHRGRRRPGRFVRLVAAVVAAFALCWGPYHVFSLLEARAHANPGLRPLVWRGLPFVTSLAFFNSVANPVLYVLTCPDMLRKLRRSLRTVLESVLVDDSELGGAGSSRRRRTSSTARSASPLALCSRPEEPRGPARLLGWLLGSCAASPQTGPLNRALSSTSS
The experiment in a line: Radioligand displacement assay (3H-PGD2) on hCRTH2 receptor membranes. In kind it is binding. As to conditions: antagonistic activity.

Setting [1] is: 3H-PGD2 radioligand displacement, HEK293-hCRTH2 membranes.
The mark [2] stands for this setting: 3H-PGD2 displacement on HEK293-hCRTH2 membrane fragments.

This passage reports IC50 results from patent US8575158B2, “1-phenyl-substituted heterocyclyl derivatives and their use as prostaglandin D2 receptor modulators” (Actelion Pharmaceuticals Ltd., priority 2010, dated 2013).

Usually pIC50 stands for −log10 of the IC50, conventionally taken in molar units. The low end stands for a high IC50, the high end for a low IC50.

pIC50: −log10 of the molar value.

Turning to `O=C(O)COc1ccc(Cl)cc1C1c2ccccc2CN1C(=O)NCc1ccccc1Cl` (racemic) [Example 557], under setting [1], the pIC50 is 7.86.
The same measure, in the same setting: then `COc1cc(OC)c2ccn(CCC(=O)N3CCc4ccccc4C3c3cc(Cl)ccc3OCC(=O)O)c2c1` (racemic) [Example 377], with 8.01; and `O=C(O)COc1ccc(Cl)cc1[C@@H]1c2ccc(F)cc2CCN1C(=O)OCc1cccc(F)c1F` [Example 354, (S)-1-(2-Carboxymethoxy-5-chloro-phenyl)-6-fluoro-3,4-dihydro-1H-isoquinoline-2-carboxylic acid 2,3-difluoro-benzyl ester], with 8.11; and `Cc1nn(CCC(=O)N2Cc3ccccc3C2c2cc(Cl)ccc2OCC(=O)O)c2cc(Cl)ccc12` (single isomer, unassigned) [Example 542, (4-Chloro-2-{2-[3-(6-chloro-3-methyl-indazol-1-yl)-propionyl]-2,3-dihydro-1H-isoindol-1-yl}-phenoxy)-acetic acid], with 6.06.
Under setting [2], `Cc1csc(COC(=O)N2CCc3ccccc3[C@H]2c2cc(Cl)ccc2OCC(=O)O)n1` [Example 276, (S)-1-(2-Carboxymethoxy-5-chloro-phenyl)-3,4-dihydro-1H-isoquinoline-2-carboxylic acid 4-methyl-thiazol-2-ylmethyl ester] gave a pIC50 of 8.74.
Still for that read-out and setting: then `CC(C)COC(=O)N1CCc2ccccc2C1c1cc(F)ccc1OCC(=O)O` (racemic) [Example 171], with 7.32; and `O=C(O)COc1ccc(F)cc1[C@@H]1c2ccccc2CCN1C(=O)OCc1ccccc1` [Example 221, (S)-1-(2-Carboxymethoxy-5-fluoro-phenyl)-3,4-dihydro-1H-isoquinoline-2-carboxylic acid benzyl ester], with 8.54.
Still for that read-out and setting: then `Cc1nc(COC(=O)N2CCc3ccccc3[C@H]2c2cc(Cl)ccc2OCC(=O)O)cs1` [Example 278, (S)-1-(2-Carboxymethoxy-5-chloro-phenyl)-3,4-dihydro-1H-isoquinoline-2-carboxylic acid 2-methyl-thiazol-4-ylmethyl ester], with 8.89.
On to `Cn1cc(CCC(=O)N2Cc3ccccc3C2c2cc(Cl)ccc2OCC(=O)O)c2ccccc21` (racemic) [Example 513], for which the pIC50 under setting [1] is 7.59.
`O=C(O)COc1ccc(F)cc1C1c2cc(F)c(F)cc2CCN1C(=O)OCc1ccccc1` (racemic) [Example 9, (±)-1-(2-Carboxymethoxy-5-fluoro-phenyl)-6,7-difluoro-3,4-dihydro-1H-isoquinoline-2-carboxylic acid benzyl ester]: the pIC50 under setting [2] is 7.45.
On the same count and under the same terms, then `O=C(O)COc1ccc(F)cc1C1c2ccccc2CCN1C(=O)CCN1C(=O)COc2ccc(Cl)cc21` (racemic) [Example 56, (±)-(2-{2-[3-(6-Chloro-3-oxo-2,3-dihydro-benzo[1,4]oxazin-4-yl)-propionyl]-1,2,3,4-tetrahydro-isoquinolin-1-yl}-4-fluoro-phenoxy)-acetic acid], with 6.13; and `N#Cc1ccc(OCC(=O)O)c(C2c3cc(F)c(F)cc3CCN2C(=O)OCc2ccccc2)c1` (racemic) [Example 11, (±)-1-(2-Carboxymethoxy-5-cyano-phenyl)-6,7-difluoro-3,4-dihydro-1H-isoquinoline-2-carboxylic acid benzyl ester], with 7.88.
`O=C(O)COc1ccc(Cl)cc1[C@@H]1c2ccc(F)cc2CCN1C(=O)OCc1nccs1` [Example 324, (S)-1-(2-Carboxymethoxy-5-chloro-phenyl)-6-fluoro-3,4-dihydro-1H-isoquinoline-2-carboxylic acid thiazol-2-ylmethyl ester] showed a pIC50 under setting [1] of 8.20.
On the same count and under the same terms, to `Cc1nc(COC(=O)N2CCc3cc(F)ccc3[C@H]2c2cc(Cl)ccc2OCC(=O)O)cs1` [Example 329, (S)-1-(2-Carboxymethoxy-5-chloro-phenyl)-6-fluoro-3,4-dihydro-1H-isoquinoline-2-carboxylic acid 2-methyl-thiazol-4-ylmethyl ester] belongs 8.23; to `O=C(O)COc1ccc(Cl)cc1C1c2ccccc2CCN1C(=O)OCc1ccc(C(F)(F)F)cc1` (racemic) [Example 363], 7.47; to `Cc1nn(CCC(=O)N2Cc3ccccc3C2c2cc(Cl)ccc2OCC(=O)O)c2ccccc12` (single isomer, unassigned) [Example 533, (4-Chloro-2-{2-[3-(3-methyl-indazol-1-yl)-propionyl]-2,3-dihydro-1H-isoindol-1-yl}-phenoxy)-acetic acid], 8.22.
Under setting [2], `O=C(O)COc1ccc(Cl)cc1C1c2cccc(F)c2CCN1C(=O)[C@@H]1C[C@H]1c1ccccc1` (relative stereo) [Example 117, {4-Chloro-2-[5-fluoro-2-(trans-2-phenyl-cyclopropanecarbonyl)-1,2,3,4-tetrahydro-isoquinolin-1-yl]-phenoxy}-acetic acid] gave a pIC50 of 7.49.
Still for that read-out and setting: then `CC(C)(CC(=O)N1CCc2ccccc2C1c1cc(F)ccc1OCC(=O)O)c1ccccc1` (racemic) [Example 46, (±)-{4-Fluoro-2-[2-(3-methyl-3-phenyl-butyryl)-1,2,3,4-tetrahydro-isoquinolin-1-yl]-phenoxy}-acetic acid], with 6.04.
Under setting [1], `Cc1ccc(CCC(=O)N2CCc3ccccc3C2c2cc(Cl)ccc2OCC(=O)O)c(C)c1` (racemic) [Example 454] gave a negative logarithm of the IC50 (pIC50) of 7.16.
Turning to `O=C(O)COc1ccc(Cl)cc1[C@@H]1c2ccc(F)cc2CCN1C(=O)CCn1ncc2cc(Cl)ccc21` [Example 396], the pIC50 under setting [1] was 6.82.
Still for that read-out and setting: to `O=C(O)COc1ccc(Cl)cc1C1c2ccccc2CCN1C(=O)NCc1ccccc1F` (racemic) [Example 495] belongs 7.62; to `O=C(O)COc1ccc(Cl)cc1C1c2ccc(F)cc2CN1C(=O)CCn1ncc2ccccc21` (racemic) [Example 526, (±)-{4-Chloro-2-[5-fluoro-2-(3-indazol-1-yl-propionyl)-2,3-dihydro-1H-isoindol-1-yl]-phenoxy}-acetic acid], 8.34.
For the compound `O=C(O)COc1ccc(Cl)cc1C1c2ccccc2CCN1C(=O)OCC1CC1` (racemic) [Example 268], the pIC50 under setting [2] was 7.56.
For the compound `O=C(O)COc1ccc(Cl)cc1C1c2ccccc2CCN1C(=O)COc1cccnc1OCCO` (racemic) [Example 475], the pIC50 under setting [1] is 6.47.
With `COc1ccc2[nH]cc(CCC(=O)N3CCc4ccccc4C3c3cc(F)ccc3OCC(=O)O)c2c1` (racemic) [Example 64, (±)-(4-Fluoro-2-{2-[3-(5-methoxy-1H-indol-3-yl)-propionyl]-1,2,3,4-tetrahydro-isoquinolin-1-yl}-phenoxy)-acetic acid], under setting [2], the pIC50 was 7.30.
The same measure, in the same setting: then `O=C(O)COc1ccc(F)cc1C1c2ccccc2CCN1C(=O)CCc1nc2ccccc2s1` (racemic) [Example 59, (±)-{2-[2-(3-Benzothiazol-2-yl-propionyl)-1,2,3,4-tetrahydro-isoquinolin-1-yl]-4-fluoro-phenoxy}-acetic acid], with 6.10.
Regarding `O=C(O)COc1ccc(Cl)cc1C1c2ccccc2CN1C(=O)CCOc1ccc(F)cc1` (racemic) [Example 520], under setting [1], the pIC50 was 6.89.
For `Cc1cccc(C)c1COC(=O)N1CCc2ccccc2C1c1cc(Cl)ccc1OCC(=O)O` (racemic) [Example 247], under setting [2], the pIC50 was 7.76.
For `Cc1cn(CCC(=O)N2CCc3ccccc3C2c2cc(Cl)ccc2OCC(=O)O)c2ccccc12` (racemic) [Example 447], the pIC50 under setting [1] is 7.86.
Same read-out and setting: to `Cn1cc(CCC(=O)N2CCc3cc(F)ccc3C2c2cc(Cl)ccc2OCC(=O)O)c2ccccc21` (racemic) [Example 434] belongs 7.48.
Under setting [2], `Cc1cc(C)c(COC(=O)N2CCc3ccccc3C2c2cc(Cl)ccc2OCC(=O)O)c(C)c1` (racemic) [Example 251] had a pIC50 of 7.91.
`Cc1csc(COC(=O)N2CCc3cc(F)ccc3[C@H]2c2cc(Cl)ccc2OCC(=O)O)n1` [Example 327, (S)-1-(2-Carboxymethoxy-5-chloro-phenyl)-6-fluoro-3,4-dihydro-1H-isoquinoline-2-carboxylic acid 4-methyl-thiazol-2-ylmethyl ester]: the pIC50 under setting [1] was 8.47.
The same measure, in the same setting: to `Cc1cc(C)n(CCOC(=O)N2CCc3cc(F)ccc3[C@H]2c2cc(Cl)ccc2OCC(=O)O)n1` [Example 341, (S)-1-(2-Carboxymethoxy-5-chloro-phenyl)-6-fluoro-3,4-dihydro-1H-isoquinoline-2-carboxylic acid 2-(3,5-dimethyl-pyrazol-1-yl)-ethyl ester] belongs 7.95; to `O=C(O)COc1ccc(Cl)cc1C1c2ccccc2CCN1C(=O)[C@@H]1C[C@H]1c1ccc(F)cc1` (mixture of isomers) [Example 418], 7.79.
`O=C(O)COc1ccc(F)cc1C1c2ccccc2CCN1C(=O)COc1ccccc1F` (racemic) [Example 148, (±)-(4-Fluoro-2-{2-[2-(2-fluoro-phenoxy)-acetyl]-1,2,3,4-tetrahydro-isoquinolin-1-yl}-phenoxy)-acetic acid]: under setting [2], the pIC50 was 6.88.
On the same count and under the same terms, to `COc1cccc(COC(=O)N2CCc3ccccc3C2c2cc(Cl)ccc2OCC(=O)O)c1OC` (racemic) [Example 255] belongs 8.31; to `O=C(O)COc1ccc(Cl)cc1C1c2ccccc2CCN1C(=O)OCc1ccc(Cl)cc1` (racemic) [Example 272], 7.77.
As to `Cc1cn(CCC(=O)N2CCc3ccccc3C2c2cc(Cl)ccc2OCC(=O)O)c2ccc(F)cc12` (racemic) [Example 368], the pIC50 under setting [1] is 7.68.
